According to the NIST ThermoML archive (doi:10.1016/j.fluid.2015.09.034):
Numbers after ± are expanded uncertainties.

Conditions: Liquid, Chromatography

vapor or sublimation pressure (223.14 K): 682.9 ± 53 kPa
vapor or sublimation pressure (298.17 K): 6436.9 ± 500 kPa
vapor or sublimation pressure (303.16 K): 7210.5 ± 560 kPa
SMILES: O=C=O [carbon dioxide]
